Results taken from ChEMBL document CHEMBL1671687, “Enhancement of biofilm formation by subinhibitory concentrations of macrolides in icaADBC-positive and -negative clinical isolates of Staphylococcus epidermidis” (2010).

How the values were obtained:
Assay type in all cases: functional
[1] = tested on: Staphylococcus epidermidis; experiment: Enhancement of biofilm formation Staphylococcus epidermidis SW036 at subinhibitory concentration by microtiter plate assay; parameters: scale not given: the % may be the effect or the level left
[2] = tested on: Staphylococcus epidermidis; experiment: Enhancement of biofilm formation Staphylococcus epidermidis SW029 expressing icaA gene at subinhibitory concentration by microtiter plate assay; parameters: scale not given: the % may be the effect or the level left
[3] = tested on: Staphylococcus epidermidis; experiment: Enhancement of biofilm formation Staphylococcus epidermidis SW045 expressing icaA gene at subinhibitory concentration by microtiter plate assay; parameters: scale not given: the % may be the effect or the level left
[4] = tested on: Staphylococcus epidermidis; experiment: Enhancement of biofilm formation Staphylococcus epidermidis SW088 at subinhibitory concentration by microtiter plate assay; parameters: scale not given: the % may be the effect or the level left
[5] = tested on: Staphylococcus epidermidis; experiment: Enhancement of biofilm formation Staphylococcus epidermidis SW070 at subinhibitory concentration by microtiter plate assay; parameters: scale not given: the % may be the effect or the level left
[6] = tested on: Staphylococcus epidermidis; experiment: Enhancement of biofilm formation Staphylococcus epidermidis SW032 expressing icaA gene at subinhibitory concentration by microtiter plate assay; parameters: scale not given: the % may be the effect or the level left
[7] = tested on: Staphylococcus epidermidis; experiment: Enhancement of biofilm formation Staphylococcus epidermidis SW085 expressing icaA gene at subinhibitory concentration by microtiter plate assay; parameters: scale not given: the % may be the effect or the level left
[8] = tested on: Staphylococcus epidermidis; experiment: Enhancement of biofilm formation Staphylococcus epidermidis SW126 expressing icaA gene at subinhibitory concentration by microtiter plate assay; parameters: scale not given: the % may be the effect or the level left
[9] = tested on: Staphylococcus epidermidis; experiment: Enhancement of biofilm formation Staphylococcus epidermidis SW058 expressing icaA gene at subinhibitory concentration by microtiter plate assay; parameters: scale not given: the % may be the effect or the level left
[10] = tested on: Staphylococcus epidermidis; experiment: Enhancement of biofilm formation Staphylococcus epidermidis SW067 expressing icaA gene at subinhibitory concentration by microtiter plate assay; parameters: scale not given: the % may be the effect or the level left
[11] = tested on: Staphylococcus epidermidis; experiment: Enhancement of biofilm formation Staphylococcus epidermidis SW120 at subinhibitory concentration by microtiter plate assay; parameters: scale not given: the % may be the effect or the level left
[12] = tested on: Staphylococcus epidermidis; experiment: Enhancement of biofilm formation Staphylococcus epidermidis SW104 expressing icaA gene at subinhibitory concentration by microtiter plate assay; parameters: scale not given: the % may be the effect or the level left
[13] = tested on: Staphylococcus epidermidis; experiment: Enhancement of biofilm formation Staphylococcus epidermidis SW099 at subinhibitory concentration by microtiter plate assay; parameters: scale not given: the % may be the effect or the level left
[14] = tested on: Staphylococcus epidermidis; experiment: Enhancement of biofilm formation Staphylococcus epidermidis SW021 at subinhibitory concentration by microtiter plate assay; parameters: scale not given: the % may be the effect or the level left
[15] = tested on: Staphylococcus epidermidis; experiment: Enhancement of biofilm formation Staphylococcus epidermidis SW061 expressing icaA gene at subinhibitory concentration by microtiter plate assay; parameters: scale not given: the % may be the effect or the level left
[16] = tested on: Staphylococcus epidermidis; experiment: Enhancement of biofilm formation Staphylococcus epidermidis SW071 at subinhibitory concentration by microtiter plate assay; parameters: scale not given: the % may be the effect or the level left
[17] = tested on: Staphylococcus epidermidis; experiment: Enhancement of biofilm formation Staphylococcus epidermidis SW115 at subinhibitory concentration by microtiter plate assay; parameters: scale not given: the % may be the effect or the level left
[18] = tested on: Staphylococcus epidermidis; experiment: Enhancement of biofilm formation Staphylococcus epidermidis SW098 expressing icaA gene at subinhibitory concentration by microtiter plate assay; parameters: scale not given: the % may be the effect or the level left
[19] = tested on: Staphylococcus epidermidis; experiment: Antimicrobial activity against Staphylococcus epidermidis SW027 expressing icaA gene assessed as enhancement of biofilm formation at subinhibitory concentration by microtiter plate assay; parameters: scale not given: the % may be the effect or the level left
[20] = tested on: Staphylococcus epidermidis; experiment: Enhancement of biofilm formation Staphylococcus epidermidis SW082 at subinhibitory concentration by microtiter plate assay; parameters: scale not given: the % may be the effect or the level left
[21] = tested on: Staphylococcus epidermidis; experiment: Antimicrobial activity against Staphylococcus epidermidis SW029 expressing icaA gene
[22] = tested on: Staphylococcus epidermidis; experiment: Enhancement of biofilm formation Staphylococcus epidermidis SW015 at subinhibitory concentration by microtiter plate assay; parameters: scale not given: the % may be the effect or the level left
[23] = tested on: Staphylococcus epidermidis; experiment: Antimicrobial activity against Staphylococcus epidermidis SW036
[24] = tested on: Staphylococcus epidermidis; experiment: Enhancement of biofilm formation Staphylococcus epidermidis ATCC 35984 expressing icaA gene at subinhibitory concentration by microtiter plate assay; parameters: scale not given: the % may be the effect or the level left

With `CC[C@H]1OC(=O)[C@H](C)[C@@H](O[C@H]2C[C@@](C)(OC)[C@@H](O)[C@H](C)O2)[C@H](C)[C@@H](O[C@@H]2O[C@H](C)C[C@H](N(C)C)[C@H]2O)[C@](C)(O)C[C@@H](C)CN(C)[C@H](C)[C@@H](O)[C@]1(C)O` [AZITHROMYCIN] the Activity [1] was 289.2%, the Activity [2] was 157.9% and the Activity [3] was 33.4%. For the same compound, the Activity [4] was 117.2%, the Activity [5] was 92.3% and the Activity [6] was 71.8%. For the same compound, the Activity [7] was 298.3%, the Activity [8] was 56.4% and the Activity [9] was 37.6%. For the same compound, the Activity [10] was 128.8%, the Activity [11] was 75.8% and the Activity [12] was 48.1%. The Activity [13] was 47%, the Activity [14] was 39.8% and the Activity [15] was 58.4%. It also gave an Activity [16] of 277.8%, an Activity [17] of 184.3% and an Activity [18] of 104%. The Activity [19] was 49.1%, the Activity [20] was 59.8% and the MIC [21] was > 128 µg/mL. For the same compound, the Activity [22] was 57.3%, the MIC [23] was > 128 µg/mL and the Activity [24] was 2.5%.
